# Source: paper PMC6270562, “Design, Synthesis and Trypanocidal Evaluation of Novel 1,2,4-Triazoles-3-thiones Derived from Natural Piperine” (Molecules, 2013)
# Tests used:
# [1] = system: epimastigote form of Y strain T. cruzi; assay: Anti-epimastigote effect (direct count of live epimastigotes after 7 days); type: cell-based, Trypanosoma cruzi; conditions: mean of triplicate
# Method: (§1) Trypanosoma cruzi (Y strain) was obtained from the Fundação Oswaldo Cruz (Rio de Janeiro, Brazil) culture collection, and maintained in the Laboratory of Glycobiology (UFRJ, Rio de Janeiro, Brazil) facilities. Epimastigote forms were maintained by weekly transfers at 28 °C in brain-heart-infusion (BHI) medium (Acumedia, Lansing, MI, USA), supplemented with 10 mg of hemin (Sigma, St. Louis, MO, USA), 20 mg of folic acid L^−1 (Sigma) and 10% heat-inactivated fetal calf serum (FCS) (BHI-FCS medium, Gibco, Grand Island, NY, USA). Tissue culture-derived trypomastigotes were obtained after infection of confluent monolayers of Vero cells (kidney epithelial cells extracted from African green monkeys) with blood trypomastigotes (Y strain) to establish the intracellular cycle and maintained in RPMI 1640 medium containing 10% FCS under an atmosphere of 5% CO2 at 37 °C. The tissue culture-derived trypomastigotes were used to infect Mø in vitro to evaluate the toxic effects of the drugs.
# For evaluation of the anti-epimastigote effects, parasites (1 × 10^5 cells per mL) were subcultured in the absence or presence of different concentrations (0.5 to 25 μg.mL^−1) of the drugs 9a–9m, from a 5 mg mL^−1 stock solution in DMSO (Sigma). The parasites were incubated in BHI-FCS medium with or without drugs in a final volume of 1.0 mL in 24-well plates (TPP, Trasadingen, Switzerland), and after 7 days, the toxic effects of the drugs were quantified by the direct count of the live epimastigotes in a Neubauer chamber.
# (§2) The 50% inhibitory concentrations (IC50) values shown in the Table 1 represent the mean of experiments carried out in triplicate. The IC50 of all compounds were determined by linear regression analysis using the program IGOR Pro 2.03 (WaveMetrics, Inc, Lake Oswego, OR, USA).
# [2] = system: amastigotes of T. cruzi; assay: Anti-amastigote effect in infected peritoneal macrophages; type: cell-based; conditions: Trypanosoma cruzi, Peritoneal macrophage, in Mus musculus; T. cruzi Y strain, intracellular amastigotes in BALB/c peritoneal Mø, 0.5-5.0 µg mL−1; ≥ = maximum concentration allowed by trypan blue exclusion assay
# Method: as §1
# Resident peritoneal Mø from non-infected BALB/c mice were harvested and cultured as described above. Adhered Mø were infected with T. cruzi trypomastigotes at a 10:1 parasite/macrophage ratio and incubated at 37 °C under 5% CO2 for 1 h. […] After, monolayers were washed with PBS at 37 °C, fixed in methanol, and stained with Giemsa (Sigma). The amastigote survival was determined by the counting of 200 cells in triplicate, the percentage of infected cells was analyzed, as well as the number of amastigotes per macrophage and the endocytic index of the infected cells.
# as §2
# [3] = system: peritoneal macrophages (Mø) from Balb/c mice; assay: Cytotoxicity to macrophages (trypan blue dye exclusion assay); type: cell-based; conditions: murine macrophages, 0.5-5 μg mL−1, 72 h
# Method: The evaluation of the toxic effects of the compounds was carried out as previously described. Murine peritoneal Mø were seeded (1 × 10^6 cells per well) in 24-well plates with 1 mL of RPMI medium containing 10% FCS. […] The five drugs were assayed in increasing concentrations (0.5, 1.0, 2.5, 5.0 µg mL^−1). Afterwards, the cells were washed with PBS, and RPMI was added to the culture before the addition of vital dye trypan blue in a final concentration of 0.01%. The toxic effects of the drugs were monitored by the count of 200 cells in a Neubauer chamber where plasma membrane permeability was evaluated.
SMILES,melting point [°C],IC50 [1] [µM],"IC50 ([1]; Trypanosoma cruzi, 168 h) [µM]",IC50 [2] [µM],toxicity on host cells [3]
"Cn1c(/C=C/C=C/c2ccc3c(c2)OCO3)n[nH]c1=S [9a, 5-[(1E,3E)-4-(1,3-Benzodioxol-5-yl)buta-1,3-dien-1-yl]-4-methyl-2,4-dihydro-3H-1,2,-triazole-3-thione]",220 to 222,,44.2 ± 7.3,,
"CCn1c(/C=C/C=C/c2ccc3c(c2)OCO3)n[nH]c1=S [9b, 5-[(1E,3E)-4-(1,3-Benzodioxol-5-yl)buta-1,3-dien-1-yl]-4-ethyl-2,4-dihydro-3H-1,2,4-triazole-3-thione]",208 to 209,,50.2 ± 10.8,,
"CC(C)n1c(/C=C/C=C/c2ccc3c(c2)OCO3)n[nH]c1=S [9c, 5-[(1E,3E)-4-(1,3-Benzodioxol-5-yl)buta-1,3-dien-1-yl]-4-isopropyl-2,4-dihydro-3H-1,2,4-triazole-3-thione]",210 to 211,27 ± 6.98,< 30,11.1 ± 1.26,
"CCCCn1c(/C=C/C=C/c2ccc3c(c2)OCO3)n[nH]c1=S [9d, 5-[(1E,3E)-4-(1,3-Benzodioxol-5-yl)buta-1,3-dien-1-yl]-4-butyl-2,4-dihydro-3H-1,2,4-triazole-3-thione]",173 to 174,,,≥ 15.2,
"CCCCCCn1c(/C=C/C=C/c2ccc3c(c2)OCO3)n[nH]c1=S [9e, 5-[(1E,3E)-4-(1,3-Benzodioxol-5-yl)buta-1,3-dien-1-yl]-4-hexyl-2,4-dihydro-3H-1,2,4-triazole-3-thione]",124 to 125,15.4 ± 4.47,< 30,≥ 14,
"S=c1[nH]nc(/C=C/C=C/c2ccc3c(c2)OCO3)n1C1CCCCC1 [9f, 5-[(1E,3E)-4-(1,3-Benzodioxol-5-yl)buta-1,3-dien-1-yl]-4-cyclohexyl-2,4-dihydro-3H-1,2,4-triazole-3-thione]",192 to 194,18.3 ± 5.21,< 30,8.87 ± 2.39,low toxic effects
"S=c1[nH]nc(/C=C/C=C/c2ccc3c(c2)OCO3)n1-c1ccccc1 [9g, 5-[(1E,3E)-4-(1,3-Benzodioxol-5-yl)buta-1,3-dien-1-yl]-4-phenyl-2,4-dihydro-3H-1,2,4-triazole-3-thione]",244 to 245,,39 ± 8.88,,
"S=c1[nH]nc(/C=C/C=C/c2ccc3c(c2)OCO3)n1Cc1ccccc1 [9h, 5-[(1E,3E)-4-(1,3-Benzodioxol-5-yl)buta-1,3-dien-1-yl]-4-benzyl-2,4-dihydro-3H-1,2,4-triazole-3-thione]",187 to 188,,39.4 ± 6.88,,
"O=C(Cn1ccnc1[N+](=O)[O-])NCc1ccccc1 [Benznidazole, benznidazole, reference compound]",,,2.2 ± 0.16,2.5 ± 0.21,

# The next lines start with results.
melting point [°C],IC50 [1] [µM],SMILES,"IC50 ([1]; Trypanosoma cruzi, 168 h) [µM]",IC50 [2] [µM],toxicity on host cells [3]
242 to 243,,"COc1cc(-n2c(/C=C/C=C/c3ccc4c(c3)OCO4)n[nH]c2=S)cc(OC)c1OC [9i, 5-[(1E,3E)-4-(1,3-Benzodioxol-5-yl)buta-1,3-dien-1-yl]-4-(3,4,5-trimethoxyphenyl)-2,4-dihydro-3H-1,2,4-triazole-3-thione]",35.3 ± 6.26,,
183 to 184,,"CC(C)(C)n1c(/C=C/C=C/c2ccc3c(c2)OCO3)n[nH]c1=S [9j, 5-[(1E,3E)-4-(1,3-Benzodioxol-5-yl)buta-1,3-dien-1-yl]-4-tert-butyl-2,4-dihydro-3H-1,2,4-triazole-3-thione]",50.8 ± 10.6,,
209 to 211,,"CSc1ccc(-n2c(/C=C/C=C/c3ccc4c(c3)OCO4)n[nH]c2=S)cc1 [9k, 5-[(1E,3E)-4-(1,3-Benzodioxol-5-yl)buta-1,3-dien-1-yl]-4-[4-(methylthio)phenyl]-2,4-dihydro-3H-1,2,4-triazole-3-thione]",40.8 ± 10.5,,
248 to 249,,"COc1cccc(-n2c(/C=C/C=C/c3ccc4c(c3)OCO4)n[nH]c2=S)c1 [9l, 5-[(1E,3E)-4-(1,3-Benzodioxol-5-yl)buta-1,3-dien-1-yl]-4-(3-methoxyphenyl)-2,4-dihydro-3H-1,2,4-triazole-3-thione]",48 ± 6.06,,
232 to 233,18.5 ± 3.95,"FC(F)(F)c1ccc(-n2c(/C=C/C=C/c3ccc4c(c3)OCO4)n[nH]c2=S)cc1 [9m, 5-[(1E,3E)-4-(1,3-Benzodioxol-5-yl)buta-1,3-dien-1-yl]-4-[4-(trifluoromethyl)phenyl]-2,4-dihydro-3H-1,2,4-triazole-3-thione]",< 30,9.59 ± 2.87,
